Reference: BindingDB's records for doi:10.1016/s0960-894x(03)00014-3 (Merck Research Laboratories, 2003)

Assay: Inhibition of T-cell proliferation was determined by a human T-cell assay

| IC50 [nM] | SMILES |
| --- | --- |
| 195 | CNC(=O)O[C@H]1CC[C@@](CNC(=O)c2ccccc2OC)(c2ccccc2)CC1 [Methyl-carbamic acid 4-[(2-methoxy-benzoylamino)-methyl]-4-phenyl-cyclohexyl ester] |
| 892 | COc1ccccc1C(=O)NC[C@]1(c2ccccc2)CC[C@H](OC(=O)NC(C)C)CC1 [Isopropyl-carbamic acid 4-[(2-methoxy-benzoylamino)-methyl]-4-phenyl-cyclohexyl ester] |
| 688 | C=C(C)CNC(=O)O[C@H]1CC[C@@](CNC(=O)c2ccccc2OC)(c2ccccc2)CC1 [(2-Methyl-allyl)-carbamic acid 4-[(2-methoxy-benzoylamino)-methyl]-4-phenyl-cyclohexyl ester] |
| 399 | C/C=C/C(=O)N[C@H]1CC[C@](CNC(=O)c2ccccc2OC)(c2ccccc2)CC1 [N-[4-((E)-But-2-enoylamino)-1-phenyl-cyclohexylmethyl]-2-methoxy-benzamide] |
| 688 | CCCCNC(=O)O[C@H]1CC[C@@](CNC(=O)c2ccccc2OC)(c2ccccc2)CC1 [Butyl-carbamic acid 4-[(2-methoxy-benzoylamino)-methyl]-4-phenyl-cyclohexyl ester] |
| 361 | C=CCNC(=O)O[C@H]1CC[C@@](CNC(=O)c2ccccc2OC)(c2ccccc2)CC1 [Allyl-carbamic acid 4-[(2-methoxy-benzoylamino)-methyl]-4-phenyl-cyclohexyl ester] |
| 430 | C=CCNC(=O)N[C@H]1CC[C@](CNC(=O)c2ccccc2OC)(c2ccccc2)CC1 [N-[4-(3-Allyl-ureido)-1-phenyl-cyclohexylmethyl]-2-methoxy-benzamide] |
| 519 | COc1ccccc1C(=O)NC[C@]1(c2ccccc2)CC[C@H](OC(N)=O)CC1 [Carbamic acid 4-[(2-methoxy-benzoylamino)-methyl]-4-phenyl-cyclohexyl ester] |
| 1790 | COc1ccccc1C(=O)NC[C@]1(c2ccccc2)CC[C@@H](OC(=O)NCCO)CC1 [(2-Hydroxy-ethyl)-carbamic acid 4-[(2-methoxy-benzoylamino)-methyl]-4-phenyl-cyclohexyl ester] |
| 676 | C=CCNC(=O)N[C@H]1CC[C@@](CNC(=O)c2ccccc2OC)(c2ccccc2)CC1 [N-[4-(3-Allyl-ureido)-1-phenyl-cyclohexylmethyl]-2-methoxy-benzamide] |
| 273 | CCCNC(=O)O[C@H]1CC[C@@](CNC(=O)c2ccccc2OC)(c2ccccc2)CC1 [Propyl-carbamic acid 4-[(2-methoxy-benzoylamino)-methyl]-4-phenyl-cyclohexyl ester] |
| 539 | C=CCOC(=O)N[C@H]1CC[C@@](CNC(=O)c2ccccc2OC)(c2ccccc2)CC1 [{4-[(2-Methoxy-benzoylamino)-methyl]-4-phenyl-cyclohexyl}-carbamic acid allyl ester] |
| 354 | C=CCOC(=O)N[C@H]1CC[C@](CNC(=O)c2ccccc2OC)(c2ccccc2)CC1 [{4-[(2-Methoxy-benzoylamino)-methyl]-4-phenyl-cyclohexyl}-carbamic acid allyl ester] |
| 1260 | CNC(=O)O[C@H]1CC[C@](CNC(=O)c2ccccc2OC)(c2ccccc2)CC1 [Methyl-carbamic acid 4-[(2-methoxy-benzoylamino)-methyl]-4-phenyl-cyclohexyl ester] |
| 154 | COc1ccccc1C(=O)NC[C@]1(c2ccccc2)CC[C@H](NC(=O)c2ccccc2)CC1 [N-(4-Benzoylamino-1-phenyl-cyclohexylmethyl)-2-methoxy-benzamide] |
| 200 | COc1ccccc1C(=O)NC[C@]1(c2ccccc2)CC[C@H](NC(=O)CCc2ccccc2)CC1 [2-Methoxy-N-[1-phenyl-4-(3-phenyl-propionylamino)-cyclohexylmethyl]-benzamide] |
| 1200 | COc1ccccc1C(=O)NCC1(c2ccccc2)CCC(=O)CC1 [2-Methoxy-N-(4-oxo-1-phenyl-cyclohexylmethyl)-benzamide] |
| 618 | COc1ccccc1C(=O)NC[C@]1(c2ccccc2)CC[C@@H](NC(=O)SC)CC1 [{4-[(2-Methoxy-benzoylamino)-methyl]-4-phenyl-cyclohexyl}-thiocarbamic acid methyl ester] |
| 1000 | COCCNC(=O)O[C@H]1CC[C@@](CNC(=O)c2ccccc2OC)(c2ccccc2)CC1 [(2-Methoxy-ethyl)-carbamic acid 4-[(2-methoxy-benzoylamino)-methyl]-4-phenyl-cyclohexyl ester] |
| 609 | COc1ccccc1C(=O)NC[C@]1(c2ccccc2)CC[C@H](NC(=O)Cc2ccccc2)CC1 [2-Methoxy-N-(1-phenyl-4-phenylacetylamino-cyclohexylmethyl)-benzamide] |
| 1060 | COC(=O)N[C@H]1CC[C@@](CNC(=O)c2ccccc2OC)(c2ccccc2)CC1 [{4-[(2-Methoxy-benzoylamino)-methyl]-4-phenyl-cyclohexyl}-carbamic acid methyl ester] |
| 222 | COc1ccccc1C(=O)NC[C@]1(c2ccccc2)CC[C@@H](OC(=O)NC(C)C)CC1 [Isopropyl-carbamic acid 4-[(2-methoxy-benzoylamino)-methyl]-4-phenyl-cyclohexyl ester] |
| 915 | COc1ccccc1C(=O)NC[C@]1(c2ccccc2)CC[C@H](OC(=O)NCc2ccccc2)CC1 [Benzyl-carbamic acid 4-[(2-methoxy-benzoylamino)-methyl]-4-phenyl-cyclohexyl ester] |
| 659 | C=CCN(C)C(=O)O[C@H]1CC[C@](CNC(=O)c2ccccc2OC)(c2ccccc2)CC1 [Allyl-methyl-carbamic acid 4-[(2-methoxy-benzoylamino)-methyl]-4-phenyl-cyclohexyl ester] |
| 1100 | C=CCNC(=O)O[C@H]1CC[C@](CNC(=O)c2ccccc2OC)(c2ccccc2)CC1 [Allyl-carbamic acid 4-[(2-methoxy-benzoylamino)-methyl]-4-phenyl-cyclohexyl ester] |
| 320 | CCCCNC(=O)O[C@H]1CC[C@](CNC(=O)c2ccccc2OC)(c2ccccc2)CC1 [Butyl-carbamic acid 4-[(2-methoxy-benzoylamino)-methyl]-4-phenyl-cyclohexyl ester] |
| 237 | COc1ccccc1C(=O)NC[C@]1(c2ccccc2)CC[C@H](OC(=O)Nc2ccccc2)CC1 [Phenyl-carbamic acid 4-[(2-methoxy-benzoylamino)-methyl]-4-phenyl-cyclohexyl ester] |
